Laboratory results published in EP0726263A2, “Herbicidal (1,3,4)oxadiazoles and thiadiazoles” (American Cyanamid Company, priority 1995, dated 1996).

Assays:
Format in all cases: in vivo
Gossypium hirsutum [1] = assay: Herbicidal activity, postemergence test; settings: post; sprayed onto seedling plants, 800 g of active material per hectare; evaluated 2 weeks after treatment
Outline: (§1)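 Spray dose 800 g a.i./ha in 900 L/ha; acetone stock with 0.4% Triton X-155, water-diluted. Pre: sown loam soil, read at 3 wk. Post: seedling plants, read at 2 wk. Visual 0-9 rating vs untreated.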

Glycine max [2] = assay: Herbicidal activity, postemergence test; settings: post; sprayed onto seedling plants, 800 g of active material per hectare; evaluated 2 weeks after treatment
Outline: as §1

Chenopodium album [3] = assay: Herbicidal activity, postemergence test; settings: post; sprayed onto seedling plants, 800 g of active material per hectare; evaluated 2 weeks after treatment
Outline: as §1

Triticum aestivum [4] = assay: Herbicidal activity, postemergence test; settings: post; sprayed onto seedling plants, 800 g of active material per hectare; evaluated 2 weeks after treatment
Outline: as §1

Ipomoea hederacea [5] = assay: Herbicidal activity, postemergence test; settings: post; sprayed onto seedling plants, 800 g of active material per hectare; evaluated 2 weeks after treatment
Outline: as §1

Abutilon theophrasti [6] = assay: Herbicidal activity, postemergence test; settings: post; sprayed onto seedling plants, 800 g of active material per hectare; evaluated 2 weeks after treatment
Outline: as §1

Veronica persica [7] = assay: Herbicidal activity, postemergence test; settings: post; sprayed onto seedling plants, 800 g of active material per hectare; evaluated 2 weeks after treatment
Outline: as §1

Hordeum vulgare [8] = assay: Herbicidal activity, postemergence test; settings: post; sprayed onto seedling plants, 800 g of active material per hectare; evaluated 2 weeks after treatment
Outline: as §1

Galium aparine [9] = assay: Herbicidal activity, postemergence test; settings: post; sprayed onto seedling plants, 800 g of active material per hectare; evaluated 2 weeks after treatment
Outline: as §1

Papaver rhoeas [10] = assay: Herbicidal activity, postemergence test; settings: post; sprayed onto seedling plants, 800 g of active material per hectare; evaluated 2 weeks after treatment
Outline: as §1

Stellaria media [11] = assay: Herbicidal activity, postemergence test; settings: post; sprayed onto seedling plants, 800 g of active material per hectare; evaluated 2 weeks after treatment
Outline: as §1

Lamium purpureum [12] = assay: Herbicidal activity, postemergence test; settings: post; sprayed onto seedling plants, 800 g of active material per hectare; evaluated 2 weeks after treatment
Outline: as §1

Matricaria inodora [13] = assay: Herbicidal activity, postemergence test; settings: post; sprayed onto seedling plants, 800 g of active material per hectare; evaluated 2 weeks after treatment
Outline: as §1

Zea mays [14] = assay: Herbicidal activity, postemergence test; settings: post; sprayed onto seedling plants, 800 g of active material per hectare; evaluated 2 weeks after treatment
Outline: as §1

Ambrosia artemisifolia [15] = assay: Herbicidal activity, postemergence test; settings: post; sprayed onto seedling plants, 800 g of active material per hectare; evaluated 2 weeks after treatment
Outline: as §1

Alopecurus myosuroides [16] = assay: Herbicidal activity, postemergence test; settings: post; sprayed onto seedling plants, 800 g of active material per hectare; evaluated 2 weeks after treatment
Outline: as §1

Setaria viridis [17] = assay: Herbicidal activity, postemergence test; settings: post; sprayed onto seedling plants, 800 g of active material per hectare; evaluated 2 weeks after treatment
Outline: as §1

Amaranthus retroflexus [18] = assay: Herbicidal activity, postemergence test; settings: post; sprayed onto seedling plants, 800 g of active material per hectare; evaluated 2 weeks after treatment
Outline: as §1

Gossypium hirsutum [19] = assay: Herbicidal activity, preemergence test; settings: pre; sprayed onto soil, 800 g of active material per hectare; evaluated 3 weeks after treatment
Outline: (§2)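 Acetone/TRITON X-155 formulation diluted in water, sprayed onto horticultural loam soon after sowing at 800 g active material per hectare in 900 litres per hectare. Visual 0-9 rating of stand, vigor, malformation, size and chlorosis versus untreated sown soil, scored 3 weeks after treatment.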

Glycine max [20] = assay: Herbicidal activity, preemergence test; settings: pre; sprayed onto soil, 800 g of active material per hectare; evaluated 3 weeks after treatment
Outline: as §2

Chenopodium album [21] = assay: Herbicidal activity, preemergence test; settings: pre; sprayed onto soil, 800 g of active material per hectare; evaluated 3 weeks after treatment
Outline: as §2

Triticum aestivum [22] = assay: Herbicidal activity, preemergence test; settings: pre; sprayed onto soil, 800 g of active material per hectare; evaluated 3 weeks after treatment
Outline: as §2

Ipomoea hederacea [23] = assay: Herbicidal activity, preemergence test; settings: pre; sprayed onto soil, 800 g of active material per hectare; evaluated 3 weeks after treatment
Outline: as §2

Abutilon theophrasti [24] = assay: Herbicidal activity, preemergence test; settings: pre; sprayed onto soil, 800 g of active material per hectare; evaluated 3 weeks after treatment
Outline: as §2

Veronica persica [25] = assay: Herbicidal activity, preemergence test; settings: pre; sprayed onto soil, 800 g of active material per hectare; evaluated 3 weeks after treatment
Outline: as §2

Hordeum vulgare [26] = assay: Herbicidal activity, preemergence test; settings: pre; sprayed onto soil, 800 g of active material per hectare; evaluated 3 weeks after treatment
Outline: as §2

Galium aparine [27] = assay: Herbicidal activity, preemergence test; settings: pre; sprayed onto soil, 800 g of active material per hectare; evaluated 3 weeks after treatment
Outline: as §2

Papaver rhoeas [28] = assay: Herbicidal activity, preemergence test; settings: pre; sprayed onto soil, 800 g of active material per hectare; evaluated 3 weeks after treatment
Outline: as §2

Stellaria media [29] = assay: Herbicidal activity, preemergence test; settings: pre; sprayed onto soil, 800 g of active material per hectare; evaluated 3 weeks after treatment
Outline: as §2

Lamium purpureum [30] = assay: Herbicidal activity, preemergence test; settings: pre; sprayed onto soil, 800 g of active material per hectare; evaluated 3 weeks after treatment
Outline: as §2

Matricaria inodora [31] = assay: Herbicidal activity, preemergence test; settings: pre; sprayed onto soil, 800 g of active material per hectare; evaluated 3 weeks after treatment
Outline: as §2

Zea mays [32] = assay: Herbicidal activity, preemergence test; settings: pre; sprayed onto soil, 800 g of active material per hectare; evaluated 3 weeks after treatment
Outline: as §2

Ambrosia artemisifolia [33] = assay: Herbicidal activity, preemergence test; settings: pre; sprayed onto soil, 800 g of active material per hectare; evaluated 3 weeks after treatment
Outline: as §2

Alopecurus myosuroides [34] = assay: Herbicidal activity, preemergence test; settings: pre; sprayed onto soil, 800 g of active material per hectare; evaluated 3 weeks after treatment
Outline: as §2

Setaria viridis [35] = assay: Herbicidal activity, preemergence test; settings: pre; sprayed onto soil, 800 g of active material per hectare; evaluated 3 weeks after treatment
Outline: as §2

Amaranthus retroflexus [36] = assay: Herbicidal activity, preemergence test; settings: pre; sprayed onto soil, 800 g of active material per hectare; evaluated 3 weeks after treatment
Outline: as §2

## C[C@H](NC(=O)c1nnc(-c2ccc(Cl)cc2)o1)c1ccccc1 [Example 12]
Gossypium hirsutum [1]
  GOSHI control rating (0-9): 9 (complete kill)
Glycine max [2]
  GLXMA control rating (0-9): 5 (definite injury)
Chenopodium album [3]
  CHEAL control rating (0-9): 9 (complete kill)
Triticum aestivum [4]
  TRZAW control rating (0-9): 2 (slight effect)
Ipomoea hederacea [5]
  IPOHE control rating (0-9): 9 (complete kill)
Abutilon theophrasti [6]
  ABUTH control rating (0-9): 9 (complete kill)
Veronica persica [7]
  VERPE control rating (0-9): 9 (complete kill)
Hordeum vulgare [8]
  HORVW control rating (0-9): 4 (injury)
Galium aparine [9]
  GALAP control rating (0-9): 6 (herbicidal effect)
Papaver rhoeas [10]
  PAPRH control rating (0-9): 9 (complete kill)
Stellaria media [11]
  STEME control rating (0-9): 9 (complete kill)
Lamium purpureum [12]
  LAMPU control rating (0-9): 9 (complete kill)
Matricaria inodora [13]
  MATIN control rating (0-9): 5 (definite injury)
Zea mays [14]
  ZEAMX control rating (0-9): 3 (moderate effect)
Ambrosia artemisifolia [15]
  AMBEL control rating (0-9): 7 (good herbicidal effect)
Alopecurus myosuroides [16]
  ALOMY control rating (0-9): 3 (moderate effect)
Setaria viridis [17]
  SETVI control rating (0-9): 9 (complete kill)
Amaranthus retroflexus [18]
  AMARE control rating (0-9): 9 (complete kill)
Gossypium hirsutum [19]
  GOSHI control rating (0-9): 0 (no effect)
Glycine max [20]
  GLXMA control rating (0-9): 0 (no effect)
Chenopodium album [21]
  CHEAL control rating (0-9): 8 (approaching complete kill)
Triticum aestivum [22]
  TRZAW control rating (0-9): 0 (no effect)
Ipomoea hederacea [23]
  IPOHE control rating (0-9): 0 (no effect)
Abutilon theophrasti [24]
  ABUTH control rating (0-9): 2 (slight effect)
Veronica persica [25]
  VERPE control rating (0-9): 9 (complete kill)
Hordeum vulgare [26]
  HORVW control rating (0-9): 0 (no effect)
Galium aparine [27]
  GALAP control rating (0-9): 0 (no effect)
Papaver rhoeas [28]
  PAPRH control rating (0-9): 9 (complete kill)
Stellaria media [29]
  STEME control rating (0-9): 9 (complete kill)
Lamium purpureum [30]
  LAMPU control rating (0-9): 8 (approaching complete kill)
Matricaria inodora [31]
  MATIN control rating (0-9): 7 (good herbicidal effect)
Zea mays [32]
  ZEAMX control rating (0-9): 0 (no effect)
Ambrosia artemisifolia [33]
  AMBEL control rating (0-9): 0 (no effect)
Alopecurus myosuroides [34]
  ALOMY control rating (0-9): 1 (trace effect)
Setaria viridis [35]
  SETVI control rating (0-9): 9 (complete kill)
Amaranthus retroflexus [36]
  AMARE control rating (0-9): 8 (approaching complete kill)

## C[C@H](NC(=O)c1nnc(-c2ccc(F)cc2F)o1)c1ccccc1 [Example 32]
Gossypium hirsutum [1]
  GOSHI control rating (0-9): 9 (complete kill)
Glycine max [2]
  GLXMA control rating (0-9): 5 (definite injury)
Chenopodium album [3]
  CHEAL control rating (0-9): 9 (complete kill)
Triticum aestivum [4]
  TRZAW control rating (0-9): 3 (moderate effect)
Ipomoea hederacea [5]
  IPOHE control rating (0-9): 9 (complete kill)
Abutilon theophrasti [6]
  ABUTH control rating (0-9): 8 (approaching complete kill)
Veronica persica [7]
  VERPE control rating (0-9): 9 (complete kill)
Hordeum vulgare [8]
  HORVW control rating (0-9): 3 (moderate effect)
Galium aparine [9]
  GALAP control rating (0-9): 6 (herbicidal effect)
Papaver rhoeas [10]
  PAPRH control rating (0-9): 9 (complete kill)
Stellaria media [11]
  STEME control rating (0-9): 9 (complete kill)
Lamium purpureum [12]
  LAMPU control rating (0-9): 9 (complete kill)
Matricaria inodora [13]
  MATIN control rating (0-9): 9 (complete kill)
Zea mays [14]
  ZEAMX control rating (0-9): 3 (moderate effect)
Ambrosia artemisifolia [15]
  AMBEL control rating (0-9): 8 (approaching complete kill)
Alopecurus myosuroides [16]
  ALOMY control rating (0-9): 3 (moderate effect)
Setaria viridis [17]
  SETVI control rating (0-9): 9 (complete kill)
Amaranthus retroflexus [18]
  AMARE control rating (0-9): 8 (approaching complete kill)
Gossypium hirsutum [19]
  GOSHI control rating (0-9): 0 (no effect)
Glycine max [20]
  GLXMA control rating (0-9): 0 (no effect)
Chenopodium album [21]
  CHEAL control rating (0-9): 8 (approaching complete kill)
Triticum aestivum [22]
  TRZAW control rating (0-9): 0 (no effect)
Ipomoea hederacea [23]
  IPOHE control rating (0-9): 0 (no effect)
Abutilon theophrasti [24]
  ABUTH control rating (0-9): 2 (slight effect)
Veronica persica [25]
  VERPE control rating (0-9): 9 (complete kill)
Hordeum vulgare [26]
  HORVW control rating (0-9): 0 (no effect)
Galium aparine [27]
  GALAP control rating (0-9): 2 (slight effect)
Papaver rhoeas [28]
  PAPRH control rating (0-9): 8 (approaching complete kill)
Stellaria media [29]
  STEME control rating (0-9): 9 (complete kill)
Lamium purpureum [30]
  LAMPU control rating (0-9): 8 (approaching complete kill)
Matricaria inodora [31]
  MATIN control rating (0-9): 9 (complete kill)
Zea mays [32]
  ZEAMX control rating (0-9): 0 (no effect)
Ambrosia artemisifolia [33]
  AMBEL control rating (0-9): 1 (trace effect)
Alopecurus myosuroides [34]
  ALOMY control rating (0-9): 3 (moderate effect)
Setaria viridis [35]
  SETVI control rating (0-9): 9 (complete kill)
Amaranthus retroflexus [36]
  AMARE control rating (0-9): 9 (complete kill)

## C[C@H](NC(=O)c1nnc(-c2ccc(C(C)(C)C)cc2)o1)c1ccccc1 [Example 16]
Gossypium hirsutum [1]
  GOSHI control rating (0-9): 9 (complete kill)
Glycine max [2]
  GLXMA control rating (0-9): 4 (injury)
Chenopodium album [3]
  CHEAL control rating (0-9): 7 (good herbicidal effect)
Triticum aestivum [4]
  TRZAW control rating (0-9): 2 (slight effect)
Ipomoea hederacea [5]
  IPOHE control rating (0-9): 8 (approaching complete kill)
Abutilon theophrasti [6]
  ABUTH control rating (0-9): 8 (approaching complete kill)
Veronica persica [7]
  VERPE control rating (0-9): 9 (complete kill)
Hordeum vulgare [8]
  HORVW control rating (0-9): 4 (injury)
Galium aparine [9]
  GALAP control rating (0-9): 7 (good herbicidal effect)
Papaver rhoeas [10]
  PAPRH control rating (0-9): 7 (good herbicidal effect)
Stellaria media [11]
  STEME control rating (0-9): 9 (complete kill)
Lamium purpureum [12]
  LAMPU control rating (0-9): 9 (complete kill)
Matricaria inodora [13]
  MATIN control rating (0-9): 9 (complete kill)
Zea mays [14]
  ZEAMX control rating (0-9): 3 (moderate effect)
Ambrosia artemisifolia [15]
  AMBEL control rating (0-9): 8 (approaching complete kill)
Alopecurus myosuroides [16]
  ALOMY control rating (0-9): 3 (moderate effect)
Setaria viridis [17]
  SETVI control rating (0-9): 9 (complete kill)
Amaranthus retroflexus [18]
  AMARE control rating (0-9): 9 (complete kill)
Gossypium hirsutum [19]
  GOSHI control rating (0-9): 0 (no effect)
Glycine max [20]
  GLXMA control rating (0-9): 0 (no effect)
Chenopodium album [21]
  CHEAL control rating (0-9): 7 (good herbicidal effect)
Triticum aestivum [22]
  TRZAW control rating (0-9): 0 (no effect)
Ipomoea hederacea [23]
  IPOHE control rating (0-9): 1 (trace effect)
Abutilon theophrasti [24]
  ABUTH control rating (0-9): 1 (trace effect)
Veronica persica [25]
  VERPE control rating (0-9): 9 (complete kill)
Hordeum vulgare [26]
  HORVW control rating (0-9): 0 (no effect)
Galium aparine [27]
  GALAP control rating (0-9): 0 (no effect)
Papaver rhoeas [28]
  PAPRH control rating (0-9): 9 (complete kill)
Stellaria media [29]
  STEME control rating (0-9): 6 (herbicidal effect)
Lamium purpureum [30]
  LAMPU control rating (0-9): 8 (approaching complete kill)
Matricaria inodora [31]
  MATIN control rating (0-9): 9 (complete kill)
Zea mays [32]
  ZEAMX control rating (0-9): 0 (no effect)
Ambrosia artemisifolia [33]
  AMBEL control rating (0-9): 3 (moderate effect)
Alopecurus myosuroides [34]
  ALOMY control rating (0-9): 0 (no effect)
Setaria viridis [35]
  SETVI control rating (0-9): 8 (approaching complete kill)
Amaranthus retroflexus [36]
  AMARE control rating (0-9): 9 (complete kill)
